From ChEMBL document CHEMBL5465560, “Selectivity Literature for EUbOPEN Chemogenomic Library” (2024)

Key:
[1] = biological target: Serine/threonine-protein kinase MARK2 (Homo sapiens) (UniProt Q7KZI7); experiment: Selectivity interaction (KinomeScan (DiscoverX)) EUB0000666a MARK2; settings: at 10 µM
[2] = biological target: Phosphatidylinositol 4-phosphate 5-kinase type-1 alpha (Homo sapiens) (UniProt Q99755); settings: at 10 µM
[3] = biological target: MAP kinase-interacting serine/threonine-protein kinase 2 (Homo sapiens, UniProt Q9HBH9); experiment: Selectivity interaction (LanthaScreen Eu Kinase Binding Assay) EUB0001632a MKNK2; settings: at 10 µM
Chain of MAP kinase-interacting serine/threonine-protein kinase 2 (Q9HBH9 whole entry, looked up): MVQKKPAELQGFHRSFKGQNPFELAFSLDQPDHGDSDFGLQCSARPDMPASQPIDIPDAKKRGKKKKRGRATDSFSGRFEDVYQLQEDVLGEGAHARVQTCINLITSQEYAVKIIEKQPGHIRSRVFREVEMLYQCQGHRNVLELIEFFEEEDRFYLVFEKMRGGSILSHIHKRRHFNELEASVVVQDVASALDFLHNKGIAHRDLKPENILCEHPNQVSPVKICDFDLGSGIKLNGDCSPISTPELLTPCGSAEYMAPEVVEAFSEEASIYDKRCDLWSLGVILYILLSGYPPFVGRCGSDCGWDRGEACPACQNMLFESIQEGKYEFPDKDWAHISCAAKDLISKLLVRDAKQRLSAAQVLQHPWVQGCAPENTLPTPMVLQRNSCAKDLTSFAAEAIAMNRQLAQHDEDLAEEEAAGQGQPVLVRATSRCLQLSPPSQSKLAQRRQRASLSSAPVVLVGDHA

[4] = biological target: T1, Bromodomain-containing protein 1 (Homo sapiens) (UniProt O95696); experiment: Selectivity interaction (Bromodomain panel (DSF asssay)) EUB0000270b BRD1
T1 sequence (whole entry): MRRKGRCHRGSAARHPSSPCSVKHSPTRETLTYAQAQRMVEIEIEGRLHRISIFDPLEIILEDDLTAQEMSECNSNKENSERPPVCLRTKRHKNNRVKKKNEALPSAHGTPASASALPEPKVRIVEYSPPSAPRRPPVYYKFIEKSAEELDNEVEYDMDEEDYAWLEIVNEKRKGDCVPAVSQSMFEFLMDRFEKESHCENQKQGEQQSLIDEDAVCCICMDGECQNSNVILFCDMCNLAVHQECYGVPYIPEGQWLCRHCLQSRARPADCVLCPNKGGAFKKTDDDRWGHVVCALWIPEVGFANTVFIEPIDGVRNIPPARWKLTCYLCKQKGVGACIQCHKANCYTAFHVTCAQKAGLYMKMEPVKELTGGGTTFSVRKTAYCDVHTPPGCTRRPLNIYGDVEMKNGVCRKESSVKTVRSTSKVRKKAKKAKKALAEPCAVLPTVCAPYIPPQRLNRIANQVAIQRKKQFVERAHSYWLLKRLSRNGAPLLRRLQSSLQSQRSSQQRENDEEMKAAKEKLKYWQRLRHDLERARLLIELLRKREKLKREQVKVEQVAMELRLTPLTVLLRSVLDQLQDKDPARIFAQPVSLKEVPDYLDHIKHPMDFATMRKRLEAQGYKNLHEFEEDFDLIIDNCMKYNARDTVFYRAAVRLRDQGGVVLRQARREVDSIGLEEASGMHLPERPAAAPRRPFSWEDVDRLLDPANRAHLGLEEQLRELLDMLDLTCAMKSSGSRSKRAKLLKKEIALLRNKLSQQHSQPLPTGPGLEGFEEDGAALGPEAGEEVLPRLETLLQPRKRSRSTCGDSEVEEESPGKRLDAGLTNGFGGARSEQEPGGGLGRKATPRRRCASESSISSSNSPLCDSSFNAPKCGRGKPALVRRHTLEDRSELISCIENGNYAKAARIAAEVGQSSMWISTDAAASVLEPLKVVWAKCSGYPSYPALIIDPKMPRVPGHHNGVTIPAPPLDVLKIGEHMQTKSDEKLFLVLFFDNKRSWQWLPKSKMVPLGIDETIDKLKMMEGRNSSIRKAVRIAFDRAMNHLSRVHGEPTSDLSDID

[5] = biological target: T2, Cytoplasmic tyrosine-protein kinase BMX (Homo sapiens) (UniProt P51813); experiment: Selectivity interaction (SelectScreen profiling (Invitrogen)) EUB0000607a BMX; settings: at 2 µM
T2 sequence (whole entry): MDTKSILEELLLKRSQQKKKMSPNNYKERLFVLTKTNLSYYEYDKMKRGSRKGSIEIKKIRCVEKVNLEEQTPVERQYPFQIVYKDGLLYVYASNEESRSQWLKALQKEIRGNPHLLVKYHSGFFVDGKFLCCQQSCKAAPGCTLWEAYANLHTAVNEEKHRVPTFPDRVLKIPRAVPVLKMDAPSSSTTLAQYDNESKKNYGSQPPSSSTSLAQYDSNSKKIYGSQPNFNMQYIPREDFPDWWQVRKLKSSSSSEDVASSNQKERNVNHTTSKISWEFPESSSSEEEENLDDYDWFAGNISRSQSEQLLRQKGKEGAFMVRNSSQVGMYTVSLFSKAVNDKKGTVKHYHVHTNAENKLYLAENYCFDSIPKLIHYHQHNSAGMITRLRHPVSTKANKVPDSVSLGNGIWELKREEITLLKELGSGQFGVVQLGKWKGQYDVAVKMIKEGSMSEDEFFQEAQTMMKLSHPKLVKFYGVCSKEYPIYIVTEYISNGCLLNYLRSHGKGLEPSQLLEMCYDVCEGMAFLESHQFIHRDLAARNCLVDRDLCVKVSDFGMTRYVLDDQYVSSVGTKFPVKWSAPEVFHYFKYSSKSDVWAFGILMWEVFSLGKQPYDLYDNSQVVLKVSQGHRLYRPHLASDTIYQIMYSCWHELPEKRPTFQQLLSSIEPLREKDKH

[6] = biological target: T3, Serine/threonine-protein kinase ULK1 (Homo sapiens) (UniProt O75385); experiment: Selectivity interaction (KinomeScan (DiscoverX)) EUB0001049a ULK1; settings: at 1 µM
T3 sequence (whole entry): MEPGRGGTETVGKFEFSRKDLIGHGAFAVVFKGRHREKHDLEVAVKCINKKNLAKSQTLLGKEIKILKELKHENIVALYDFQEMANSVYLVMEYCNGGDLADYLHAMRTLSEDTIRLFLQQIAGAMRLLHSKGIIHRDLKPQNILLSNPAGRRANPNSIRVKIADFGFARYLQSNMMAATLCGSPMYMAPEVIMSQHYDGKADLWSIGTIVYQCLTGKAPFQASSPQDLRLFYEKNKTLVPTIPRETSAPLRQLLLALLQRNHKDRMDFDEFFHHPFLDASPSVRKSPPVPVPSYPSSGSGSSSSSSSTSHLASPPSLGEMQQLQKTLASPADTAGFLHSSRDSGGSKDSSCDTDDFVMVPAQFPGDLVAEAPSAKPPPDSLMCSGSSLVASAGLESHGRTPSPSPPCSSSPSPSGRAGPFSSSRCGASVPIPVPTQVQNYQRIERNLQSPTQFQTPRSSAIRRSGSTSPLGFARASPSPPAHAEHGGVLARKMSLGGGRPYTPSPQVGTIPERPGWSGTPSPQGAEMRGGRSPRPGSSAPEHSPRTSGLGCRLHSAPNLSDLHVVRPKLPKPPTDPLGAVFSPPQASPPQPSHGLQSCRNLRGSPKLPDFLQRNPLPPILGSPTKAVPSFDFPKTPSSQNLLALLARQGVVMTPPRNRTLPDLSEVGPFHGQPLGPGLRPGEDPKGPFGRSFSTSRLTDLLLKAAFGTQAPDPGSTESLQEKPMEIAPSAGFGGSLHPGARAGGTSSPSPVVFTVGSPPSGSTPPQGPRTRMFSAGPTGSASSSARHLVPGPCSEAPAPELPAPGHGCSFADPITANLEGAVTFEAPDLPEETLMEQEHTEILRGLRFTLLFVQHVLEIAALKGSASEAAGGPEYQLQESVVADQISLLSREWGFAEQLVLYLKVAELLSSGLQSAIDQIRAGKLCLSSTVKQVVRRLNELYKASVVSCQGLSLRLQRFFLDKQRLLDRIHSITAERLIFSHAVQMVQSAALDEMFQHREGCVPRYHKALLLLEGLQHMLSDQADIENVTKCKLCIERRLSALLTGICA

Chain of Phosphatidylinositol 4-phosphate 5-kinase type-1 alpha (Homo sapiens) (Q99755 whole entry): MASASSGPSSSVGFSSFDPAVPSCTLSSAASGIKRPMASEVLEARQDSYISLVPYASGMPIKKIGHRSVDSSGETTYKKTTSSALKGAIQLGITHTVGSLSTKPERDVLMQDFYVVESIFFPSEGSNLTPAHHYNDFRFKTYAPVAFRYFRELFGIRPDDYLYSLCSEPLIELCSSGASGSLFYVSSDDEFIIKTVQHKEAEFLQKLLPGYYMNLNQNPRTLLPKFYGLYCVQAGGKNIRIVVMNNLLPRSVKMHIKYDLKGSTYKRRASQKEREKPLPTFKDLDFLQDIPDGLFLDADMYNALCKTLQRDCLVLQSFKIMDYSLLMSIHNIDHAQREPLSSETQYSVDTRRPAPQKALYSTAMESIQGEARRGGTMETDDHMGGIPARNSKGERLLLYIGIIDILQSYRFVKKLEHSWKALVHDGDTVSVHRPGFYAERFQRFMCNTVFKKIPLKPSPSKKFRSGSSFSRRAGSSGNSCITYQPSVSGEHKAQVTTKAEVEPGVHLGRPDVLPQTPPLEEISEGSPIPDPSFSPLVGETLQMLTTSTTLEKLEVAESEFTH
Chain of Serine/threonine-protein kinase MARK2 (Homo sapiens) (Q7KZI7 whole entry): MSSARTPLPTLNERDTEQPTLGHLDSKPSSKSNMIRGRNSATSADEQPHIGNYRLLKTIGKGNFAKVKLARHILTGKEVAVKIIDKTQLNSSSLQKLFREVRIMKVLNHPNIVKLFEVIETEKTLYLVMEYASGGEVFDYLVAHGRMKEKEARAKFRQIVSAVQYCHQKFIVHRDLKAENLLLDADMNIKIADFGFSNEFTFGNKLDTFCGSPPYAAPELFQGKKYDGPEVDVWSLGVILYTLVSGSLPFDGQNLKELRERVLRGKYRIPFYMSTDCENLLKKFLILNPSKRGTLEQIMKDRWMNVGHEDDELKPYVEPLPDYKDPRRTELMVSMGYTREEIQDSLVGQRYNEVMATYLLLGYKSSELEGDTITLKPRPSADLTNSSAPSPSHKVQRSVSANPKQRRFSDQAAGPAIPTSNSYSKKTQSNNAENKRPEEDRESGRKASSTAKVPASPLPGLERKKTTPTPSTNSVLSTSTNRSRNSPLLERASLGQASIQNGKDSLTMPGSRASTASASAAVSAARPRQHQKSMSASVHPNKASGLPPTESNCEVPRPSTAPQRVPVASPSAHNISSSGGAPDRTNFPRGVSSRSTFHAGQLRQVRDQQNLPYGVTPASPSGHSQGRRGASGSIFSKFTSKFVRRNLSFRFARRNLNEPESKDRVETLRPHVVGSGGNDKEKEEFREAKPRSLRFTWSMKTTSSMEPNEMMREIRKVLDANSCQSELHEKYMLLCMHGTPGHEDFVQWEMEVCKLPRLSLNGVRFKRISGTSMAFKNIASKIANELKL

`O=C(NOC[C@H](O)CO)c1ccc(F)c(F)c1Nc1ccc(I)cc1F` showed a % of control [1] of 100%.
`Cc1cc([C@@H](C)Nc2ccccc2C(=O)O)c2nc(N3CCOCC3)cc(=O)n2c1` [AZD-6482] gave a % of control [2] of 100%.
Compound `Cn1cc(-n2cnc3c(NCc4nc5cc(Cl)c(Cl)cc5[nH]4)nc(N4CCOCC4)nc32)cn1` has a % of inhibition [3] of -36%.
For `Cc1cc(CN)cc(C)c1-c1ncn(C)c1-c1cncn1C`, the dTM [4] was -2.24 K.
Compound `CNC(=O)Nc1ccc(-c2nc(N3CC4CCC(C3)O4)c3cnn(C4CCC5(CC4)OCCO5)c3n2)cc1` has a % of inhibition [5] of 10%.
In the case of `COc1cc(Nc2nc(C)cc(-c3cnn4nc(OC)ccc34)n2)cc(C(F)(F)F)c1`, the % of control [6] is reported as 86%.
